According to PubChem BioAssay (NCI):
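Protocol summary: plate cells (96-well), add compound at 5 concentrations, incubate 48 h, interpolate endpoints linearly. The concentration for 50% growth inhibition is given as GI50. The concentration for full growth arrest is given as TGI.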

Legend:
Experiment in all cases: growth of human tumour cells (NCI), 48 h
786-0 renal = test system: 786-0 renal
A498 renal = test system: A498 renal
A549 NSCLC = test system: A549 NSCLC
ACHN renal = test system: ACHN renal
BT-549 breast = test system: BT-549 breast
CAKI-1 renal = test system: CAKI-1 renal
CCRF-CEM leukemia = test system: CCRF-CEM leukemia
COLO 205 colon = test system: COLO 205 colon
DU-145 prostate = test system: DU-145 prostate
EKVX NSCLC = test system: EKVX NSCLC
HCC-2998 colon = test system: HCC-2998 colon
HCT-116 colon = test system: HCT-116 colon
HCT-15 colon = test system: HCT-15 colon
HL-60(TB) leukemia = test system: HL-60(TB) leukemia
HOP-62 NSCLC = test system: HOP-62 NSCLC
HOP-92 NSCLC = test system: HOP-92 NSCLC
HS 578T breast = test system: HS 578T breast
HT29 colon = test system: HT29 colon
IGROV1 ovarian = test system: IGROV1 ovarian
K-562 leukemia = test system: K-562 leukemia
KM12 colon = test system: KM12 colon
LOX IMVI melanoma = test system: LOX IMVI melanoma
MALME-3M melanoma = test system: MALME-3M melanoma
MCF7 breast = test system: MCF7 breast
MDA-MB-231 breast = test system: MDA-MB-231 breast
MDA-MB-435 = test system: MDA-MB-435
MOLT-4 leukemia = test system: MOLT-4 leukemia
NCI-H226 lung = test system: NCI-H226 lung
NCI-H23 lung = test system: NCI-H23 lung
NCI-H460 lung = test system: NCI-H460 lung
NCI-H522 lung = test system: NCI-H522 lung
NCI/ADR-RES ovarian = test system: NCI/ADR-RES ovarian
OVCAR-3 ovarian = test system: OVCAR-3 ovarian
OVCAR-4 ovarian = test system: OVCAR-4 ovarian
OVCAR-5 ovarian = test system: OVCAR-5 ovarian
OVCAR-8 ovarian = test system: OVCAR-8 ovarian
PC-3 prostate = test system: PC-3 prostate
RPMI-8226 leukemia = test system: RPMI-8226 leukemia
RXF 393 renal = test system: RXF 393 renal
SF-268 CNS = test system: SF-268 CNS
SF-295 CNS = test system: SF-295 CNS
SF-539 CNS = test system: SF-539 CNS
SK-MEL-2 melanoma = test system: SK-MEL-2 melanoma
SK-MEL-28 melanoma = test system: SK-MEL-28 melanoma
SK-MEL-5 melanoma = test system: SK-MEL-5 melanoma
SK-OV-3 ovarian = test system: SK-OV-3 ovarian
SN12C renal = test system: SN12C renal
SNB-19 CNS = test system: SNB-19 CNS
SNB-75 CNS = test system: SNB-75 CNS
SR leukemia = test system: SR leukemia
SW-620 colon = test system: SW-620 colon
T-47D breast = test system: T-47D breast
TK-10 renal = test system: TK-10 renal
U251 CNS = test system: U251 CNS
UACC-257 melanoma = test system: UACC-257 melanoma
UACC-62 melanoma = test system: UACC-62 melanoma
UO-31 renal = test system: UO-31 renal

## CSC1=Nc2c(c(C)c(-c3ccccc3)n2COC(CO)CO)C2=NC(=O)C(C)N12 (centres undefined)
786-0 renal
  GI50: > 100 µM
  TGI: > 100 µM
A498 renal
  GI50: > 100 µM
  TGI: > 100 µM
A549 NSCLC
  GI50: > 100 µM
  TGI: > 100 µM
ACHN renal
  GI50: > 100 µM
  TGI: > 100 µM
BT-549 breast
  GI50: > 100 µM
  TGI: > 100 µM
CAKI-1 renal
  GI50: > 100 µM
  TGI: > 100 µM
CCRF-CEM leukemia
  GI50: > 100 µM
  TGI: > 100 µM
COLO 205 colon
  GI50: > 100 µM
  TGI: > 100 µM
DU-145 prostate
  GI50: > 100 µM
  TGI: > 100 µM
EKVX NSCLC
  GI50: > 100 µM
  TGI: > 100 µM
HCC-2998 colon
  GI50: > 100 µM
  TGI: > 100 µM
HCT-116 colon
  GI50: > 100 µM
  TGI: > 100 µM
HCT-15 colon
  GI50: > 100 µM
  TGI: > 100 µM
HL-60(TB) leukemia
  GI50: 3.69 µM
  TGI: > 100 µM
HOP-62 NSCLC
  GI50: > 100 µM
  TGI: > 100 µM
HOP-92 NSCLC
  GI50: > 100 µM
  TGI: > 100 µM
HS 578T breast
  GI50: > 100 µM
  TGI: > 100 µM
HT29 colon
  GI50: > 100 µM
  TGI: > 100 µM
IGROV1 ovarian
  GI50: 26.5 µM
  TGI: > 100 µM
K-562 leukemia
  GI50: > 100 µM
  TGI: > 100 µM
KM12 colon
  GI50: > 100 µM
  TGI: > 100 µM
LOX IMVI melanoma
  GI50: > 100 µM
  TGI: > 100 µM
MALME-3M melanoma
  GI50: > 100 µM
  TGI: > 100 µM
MCF7 breast
  GI50: > 100 µM
  TGI: > 100 µM
MDA-MB-231 breast
  GI50: > 100 µM
  TGI: > 100 µM
MDA-MB-435
  GI50: > 100 µM
  TGI: > 100 µM
MOLT-4 leukemia
  GI50: 29.6 µM
  TGI: > 100 µM
NCI-H226 lung
  GI50: > 100 µM
  TGI: > 100 µM
NCI-H23 lung
  GI50: > 100 µM
  TGI: > 100 µM
NCI-H460 lung
  GI50: > 100 µM
  TGI: > 100 µM
NCI-H522 lung
  GI50: > 100 µM
  TGI: > 100 µM
NCI/ADR-RES ovarian
  GI50: > 100 µM
  TGI: > 100 µM
OVCAR-3 ovarian
  GI50: > 100 µM
  TGI: > 100 µM
OVCAR-4 ovarian
  GI50: > 100 µM
  TGI: > 100 µM
OVCAR-5 ovarian
  GI50: > 100 µM
  TGI: > 100 µM
OVCAR-8 ovarian
  GI50: > 100 µM
  TGI: > 100 µM
PC-3 prostate
  GI50: > 100 µM
  TGI: > 100 µM
RPMI-8226 leukemia
  GI50: > 100 µM
  TGI: > 100 µM
RXF 393 renal
  GI50: > 100 µM
  TGI: > 100 µM
SF-268 CNS
  GI50: > 100 µM
  TGI: > 100 µM
SF-295 CNS
  GI50: > 100 µM
  TGI: > 100 µM
SF-539 CNS
  GI50: > 100 µM
  TGI: > 100 µM
SK-MEL-2 melanoma
  GI50: > 100 µM
  TGI: > 100 µM
SK-MEL-28 melanoma
  GI50: > 100 µM
  TGI: > 100 µM
SK-MEL-5 melanoma
  GI50: > 100 µM
  TGI: > 100 µM
SK-OV-3 ovarian
  GI50: > 100 µM
  TGI: > 100 µM
SN12C renal
  GI50: > 100 µM
  TGI: > 100 µM
SNB-19 CNS
  GI50: > 100 µM
  TGI: > 100 µM
SNB-75 CNS
  GI50: 48.5 µM
  TGI: > 100 µM
SR leukemia
  GI50: 4.07 µM
  TGI: > 100 µM
SW-620 colon
  GI50: > 100 µM
  TGI: > 100 µM
T-47D breast
  GI50: > 100 µM
  TGI: > 100 µM
TK-10 renal
  GI50: > 100 µM
  TGI: > 100 µM
U251 CNS
  GI50: > 100 µM
  TGI: > 100 µM
UACC-257 melanoma
  GI50: > 100 µM
  TGI: > 100 µM
UACC-62 melanoma
  GI50: 70.1 µM
  TGI: > 100 µM
UO-31 renal
  GI50: > 100 µM
  TGI: > 100 µM
